Experimental data taken from ChEMBL document CHEMBL1201862, “PubChem BioAssay data set” (2004).
The source made the active and inactive calls.

Columns and labels:
[1] = target: Bifunctional protein GlmU (Mycobacterium tuberculosis, UniProt P9WMN3); experiment: Inhibitors of Mycobacterial Glucosamine-1-phosphate acetyl transferase (GlmU). Secondary screen.; parameters: species or system Mycobacterium tuberculosis H37Rv
[2] = target: Induced myeloid leukemia cell differentiation protein Mcl-1 (Homo sapiens, UniProt Q07820); format: functional
[3] = target: DNA (cytosine-5)-methyltransferase 1 (Homo sapiens, UniProt P26358); experiment: inhibition of DNA methylation by DNMT1 – biochemical, fluorescent molecular beacon, confirmation (AID 602386); format: functional
[4] = target: 26S proteasome non-ATPase regulatory subunit 14 (Homo sapiens, UniProt O00487); experiment: inhibition of proteasome subunit RPN11 – biochemical, fluorescence polarization, uHTS hits, confirmation (AID 602368); format: functional
[5] = target: 72 kDa type IV collagenase (Homo sapiens, UniProt P08253); experiment: Dose Response validation of uHTS RPN11 inhibitor hits using a MMP-2 Fluorescence assay.; format: functional
Prothrombin = Prothrombin (Bos taurus, UniProt P00735); experiment: thrombin protease inhibitors – biochemical, fluorescence polarization, uHTS hits, dose response (AID 602369); format: functional
[6] = target: T1, Rac GTPase-activating protein 1 (Homo sapiens, UniProt Q9H0H5); experiment: blockers of MgcRacGAP-driven Rac1 GTP hydrolysis – biochemical, ADP Hunter fluorescence, primary and confirmatory, confirmation (AID 624330); format: functional
T1 sequence (Q9H0H5 whole entry): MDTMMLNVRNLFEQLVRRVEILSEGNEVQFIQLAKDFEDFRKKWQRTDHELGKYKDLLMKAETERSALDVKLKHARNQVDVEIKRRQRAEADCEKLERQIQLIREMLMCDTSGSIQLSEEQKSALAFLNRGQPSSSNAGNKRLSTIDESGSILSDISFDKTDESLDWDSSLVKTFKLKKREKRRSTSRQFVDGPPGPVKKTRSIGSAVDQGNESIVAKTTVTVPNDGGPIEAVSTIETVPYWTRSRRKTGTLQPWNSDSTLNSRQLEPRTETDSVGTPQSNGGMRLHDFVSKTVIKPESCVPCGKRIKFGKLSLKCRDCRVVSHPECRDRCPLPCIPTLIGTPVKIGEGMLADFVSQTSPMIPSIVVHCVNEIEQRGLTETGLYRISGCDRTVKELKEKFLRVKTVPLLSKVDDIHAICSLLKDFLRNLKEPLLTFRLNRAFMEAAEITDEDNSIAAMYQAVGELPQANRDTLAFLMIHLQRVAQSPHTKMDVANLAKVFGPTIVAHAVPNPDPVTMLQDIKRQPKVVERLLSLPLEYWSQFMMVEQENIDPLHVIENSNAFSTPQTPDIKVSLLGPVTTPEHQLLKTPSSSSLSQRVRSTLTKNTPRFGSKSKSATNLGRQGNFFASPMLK

[7] = target: T2, Histone-lysine N-methyltransferase NSD2 (Homo sapiens, UniProt O96028); format: biochemical
T2 sequence (O96028 whole entry): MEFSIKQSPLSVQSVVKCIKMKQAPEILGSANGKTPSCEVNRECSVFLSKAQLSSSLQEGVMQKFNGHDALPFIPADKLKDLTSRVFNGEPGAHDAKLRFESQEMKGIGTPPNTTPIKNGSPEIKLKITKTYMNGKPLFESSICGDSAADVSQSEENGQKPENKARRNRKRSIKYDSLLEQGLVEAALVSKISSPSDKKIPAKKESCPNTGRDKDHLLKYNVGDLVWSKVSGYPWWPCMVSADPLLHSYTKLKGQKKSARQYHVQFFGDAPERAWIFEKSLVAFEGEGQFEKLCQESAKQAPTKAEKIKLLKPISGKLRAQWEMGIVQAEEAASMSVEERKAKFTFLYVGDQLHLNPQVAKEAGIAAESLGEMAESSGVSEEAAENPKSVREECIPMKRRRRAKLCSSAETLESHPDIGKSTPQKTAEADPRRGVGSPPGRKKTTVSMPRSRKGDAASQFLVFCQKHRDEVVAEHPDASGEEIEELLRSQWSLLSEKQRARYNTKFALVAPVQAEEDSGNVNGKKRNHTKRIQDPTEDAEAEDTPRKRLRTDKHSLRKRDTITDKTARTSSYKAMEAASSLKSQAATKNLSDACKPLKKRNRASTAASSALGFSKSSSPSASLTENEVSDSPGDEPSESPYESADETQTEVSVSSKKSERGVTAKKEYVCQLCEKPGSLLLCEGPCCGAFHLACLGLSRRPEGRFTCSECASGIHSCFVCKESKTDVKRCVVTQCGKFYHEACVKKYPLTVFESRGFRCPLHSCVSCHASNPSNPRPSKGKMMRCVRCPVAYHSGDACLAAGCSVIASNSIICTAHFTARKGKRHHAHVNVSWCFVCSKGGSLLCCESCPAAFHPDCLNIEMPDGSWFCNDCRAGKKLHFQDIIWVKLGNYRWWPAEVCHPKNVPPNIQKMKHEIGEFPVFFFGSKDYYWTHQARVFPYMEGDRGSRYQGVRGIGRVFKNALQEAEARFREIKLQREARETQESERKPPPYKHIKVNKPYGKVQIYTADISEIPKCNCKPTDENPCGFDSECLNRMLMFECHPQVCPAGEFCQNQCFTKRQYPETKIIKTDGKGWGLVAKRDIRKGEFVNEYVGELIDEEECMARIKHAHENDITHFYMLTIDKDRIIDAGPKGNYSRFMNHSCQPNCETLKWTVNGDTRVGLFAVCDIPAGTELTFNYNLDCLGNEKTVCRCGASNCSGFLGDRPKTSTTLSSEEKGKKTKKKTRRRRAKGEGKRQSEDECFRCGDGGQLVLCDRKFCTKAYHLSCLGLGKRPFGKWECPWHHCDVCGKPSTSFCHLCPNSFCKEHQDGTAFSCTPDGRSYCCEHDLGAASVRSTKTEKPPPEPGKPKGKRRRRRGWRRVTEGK

[8] = target: Sphingosine 1-phosphate receptor 2 (Homo sapiens, UniProt O95136); experiment: Dose Response Cell Based Assay for Agonists of the S1P2 Receptor. [Related pubchem assays: 729, 736, 843 ]; format: functional
[9] = Luminescent dose response cell-based high throughput screening assay for inhibitors of the Janus kinase 2 mutant JAK2V617F. [Related pubchem assays: 1446 (Primary screen.), 1521 (Confirmation assay.), 1486 (Counter screen.)]; format: functional
[10] = target: Luciferin 4-monooxygenase (Photinus pyralis, UniProt P08659); experiment: inhibition of purified Photinus pyralis luciferase – biochemical, luminescence, dose response (AID 1891)
[11] = Luminescence Cell-Based Dose Confirmation HTS to Identify Inhibitors of Platelet Dense Granule Release. [Related pubchem assays: 1663 (Primary HTS), 1678 (Summary of Project)]; format: functional
[12] = target: T3, High affinity choline transporter 1 (Homo sapiens, UniProt Q9GZV3); experiment: human choline transporter blockers, potency – cell-based, 5-point CRC, membrane potential dye, dose response (AID 504840); format: functional
T3 sequence (Q9GZV3 whole entry): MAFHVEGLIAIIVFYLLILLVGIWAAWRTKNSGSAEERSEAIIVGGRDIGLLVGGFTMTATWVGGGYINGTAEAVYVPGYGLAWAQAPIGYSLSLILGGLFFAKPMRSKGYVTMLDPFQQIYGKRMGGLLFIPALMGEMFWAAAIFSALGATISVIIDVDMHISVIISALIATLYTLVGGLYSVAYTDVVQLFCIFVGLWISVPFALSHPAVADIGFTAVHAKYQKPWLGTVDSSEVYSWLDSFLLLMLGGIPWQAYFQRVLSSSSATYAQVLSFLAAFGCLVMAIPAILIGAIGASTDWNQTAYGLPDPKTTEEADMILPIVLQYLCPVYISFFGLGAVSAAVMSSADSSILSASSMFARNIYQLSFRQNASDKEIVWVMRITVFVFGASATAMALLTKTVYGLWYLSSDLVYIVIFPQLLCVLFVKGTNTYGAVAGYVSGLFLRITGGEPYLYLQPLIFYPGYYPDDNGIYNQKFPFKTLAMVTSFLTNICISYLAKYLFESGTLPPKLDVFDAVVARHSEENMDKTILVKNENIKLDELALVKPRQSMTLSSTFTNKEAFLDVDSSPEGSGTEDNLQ

[13] = target: Diphosphomevalonate decarboxylase (Streptococcus pneumoniae serotype 2 (strain D39 / NCTC 7466), UniProt Q9FD53); experiment: diphosphomevalonate decarboxylase inhibitor confirmation – biochemical, cuvette format, coupled NADH fluorescence (AID 1028); format: functional
Vero = experiment: mammalian cell viability reduction – secondary assay, cytotoxicity control for West Nile virus antiviral project, dose response (AID 1650); format: functional; conditions: Chlorocebus sabaeus
[14] = target: E3 ubiquitin-protein ligase Mdm2 (Homo sapiens, UniProt Q00987); experiment: MDM2-luc reporter signal enhancers, multi-concentration potency testing, MDM2 ubiquitin-protein ligase inhibitor program, whole-cell format, luminescence detection, 384-well microplate (AID 1394); format: functional;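 also: MDM2 E3 inhibitors raise luminescence so EC50 is for signal enhancement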
Bcl-2-related protein A1 [15] = target: T4, Bcl-2-related protein A1 (Mus musculus, UniProt Q07440); experiment: small-molecule antagonists of Bfl-1/BH3 interaction – biochemical, TR-FRET, mouse Bfl-1, confirmation (AID 621);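 also: TR-FRET binding of GST-Bfl-1 to FITC-labelled Bid peptide via terbium antibody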
T4 sequence (Q07440 whole entry): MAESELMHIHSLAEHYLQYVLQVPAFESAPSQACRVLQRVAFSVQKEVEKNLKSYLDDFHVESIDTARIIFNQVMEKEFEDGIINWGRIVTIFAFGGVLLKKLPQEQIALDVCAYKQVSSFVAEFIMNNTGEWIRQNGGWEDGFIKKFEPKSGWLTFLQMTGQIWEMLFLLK

Bcl-2-related protein A1 [16] = target: T4, Bcl-2-related protein A1; experiment: Bfl-1 binding inhibitors, SAR follow-up, biochemical, fluorescence polarization (AID 1070)
NADPH oxidase 1 = NADPH oxidase 1 (Homo sapiens, UniProt Q9Y5S8); experiment: Late-stage luminescence-based cell-based dose response assay to identify inhibitors of NADPH oxidase 1 (NOX1): Purchased analogs 2.; format: functional
[17] = M. tuberculosis growth inhibition, HTS (AID 449762); format: functional
[18] = target: T5, RNA-binding protein pos-1 (Caenorhabditis elegans, UniProt G5EF15); experiment: disruptors of C. elegans POS-1 RNA interaction – biochemical, fluorescence polarization, dose response (AID 1964);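 also: purified POS-1 fused to maltose binding protein made in E. coli; potency of compounds blocking POS-1 binding to fluorescent RNA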
T5 sequence (G5EF15 whole entry): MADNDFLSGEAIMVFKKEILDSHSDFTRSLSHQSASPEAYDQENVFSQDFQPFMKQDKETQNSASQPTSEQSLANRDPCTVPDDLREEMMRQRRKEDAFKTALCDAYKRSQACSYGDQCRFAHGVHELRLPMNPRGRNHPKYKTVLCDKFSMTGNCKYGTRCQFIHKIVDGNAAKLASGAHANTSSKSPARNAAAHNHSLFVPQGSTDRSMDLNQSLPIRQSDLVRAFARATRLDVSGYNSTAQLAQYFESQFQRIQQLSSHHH

[19] = target: T6, Zinc finger protein mex-5 (Caenorhabditis elegans, UniProt Q9XUB2); experiment: potency of MEX-5 RNA-binding blockers – biochemical, C. elegans, fluorescence polarization, dose response (AID 1960)
T6 sequence (Q9XUB2 whole entry): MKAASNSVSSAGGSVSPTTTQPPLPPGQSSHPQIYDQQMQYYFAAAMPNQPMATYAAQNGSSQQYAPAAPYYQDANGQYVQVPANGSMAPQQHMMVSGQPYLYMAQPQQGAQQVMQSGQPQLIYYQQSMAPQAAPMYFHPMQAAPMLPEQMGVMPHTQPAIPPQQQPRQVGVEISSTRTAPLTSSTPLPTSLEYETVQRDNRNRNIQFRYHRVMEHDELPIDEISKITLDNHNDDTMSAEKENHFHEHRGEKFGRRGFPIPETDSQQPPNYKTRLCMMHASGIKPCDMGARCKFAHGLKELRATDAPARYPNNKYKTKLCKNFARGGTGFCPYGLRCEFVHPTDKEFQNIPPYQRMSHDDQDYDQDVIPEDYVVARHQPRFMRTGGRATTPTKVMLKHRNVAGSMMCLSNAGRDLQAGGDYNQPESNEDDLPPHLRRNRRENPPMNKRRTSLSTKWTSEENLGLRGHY

[20] = target: Peroxisome proliferator-activated receptor gamma/Nuclear receptor corepressor 2 (Homo sapiens, UniProt P37231+Q9Y618); experiment: Counterscreen for NR2E3 inverse agonists: TR-FRET-based biochemical high throughput dose response assay to identify inverse agonists of the interaction between peroxisome proliferator-activated receptor gamma (PPARg) and nuclear receptor co-repressor 2 (NCOR2).; format: functional
[21] = target: Photoreceptor-specific nuclear receptor (Homo sapiens, UniProt Q9Y5X4); experiment: ligands suppressing NR2E3 nuclear receptor activity – biochemical, TR-FRET, dose response (AID 463256); format: functional
[22] = target: Dual specificity tyrosine-phosphorylation-regulated kinase 1A (Rattus norvegicus, UniProt Q63470); format: biochemical, Homo sapiens

Sequence of Photoreceptor-specific nuclear receptor (Q9Y5X4 whole entry): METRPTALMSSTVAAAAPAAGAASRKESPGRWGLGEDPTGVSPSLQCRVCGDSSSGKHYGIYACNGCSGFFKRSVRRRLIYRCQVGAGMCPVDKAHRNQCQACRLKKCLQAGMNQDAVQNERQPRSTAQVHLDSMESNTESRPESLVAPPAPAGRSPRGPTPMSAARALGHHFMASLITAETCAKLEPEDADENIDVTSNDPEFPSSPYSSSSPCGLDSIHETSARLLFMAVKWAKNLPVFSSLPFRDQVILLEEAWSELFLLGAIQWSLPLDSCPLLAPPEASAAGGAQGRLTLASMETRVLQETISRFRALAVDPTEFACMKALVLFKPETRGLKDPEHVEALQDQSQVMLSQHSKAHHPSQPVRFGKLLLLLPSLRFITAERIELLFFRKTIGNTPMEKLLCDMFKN
Sequence of 72 kDa type IV collagenase (P08253 whole entry): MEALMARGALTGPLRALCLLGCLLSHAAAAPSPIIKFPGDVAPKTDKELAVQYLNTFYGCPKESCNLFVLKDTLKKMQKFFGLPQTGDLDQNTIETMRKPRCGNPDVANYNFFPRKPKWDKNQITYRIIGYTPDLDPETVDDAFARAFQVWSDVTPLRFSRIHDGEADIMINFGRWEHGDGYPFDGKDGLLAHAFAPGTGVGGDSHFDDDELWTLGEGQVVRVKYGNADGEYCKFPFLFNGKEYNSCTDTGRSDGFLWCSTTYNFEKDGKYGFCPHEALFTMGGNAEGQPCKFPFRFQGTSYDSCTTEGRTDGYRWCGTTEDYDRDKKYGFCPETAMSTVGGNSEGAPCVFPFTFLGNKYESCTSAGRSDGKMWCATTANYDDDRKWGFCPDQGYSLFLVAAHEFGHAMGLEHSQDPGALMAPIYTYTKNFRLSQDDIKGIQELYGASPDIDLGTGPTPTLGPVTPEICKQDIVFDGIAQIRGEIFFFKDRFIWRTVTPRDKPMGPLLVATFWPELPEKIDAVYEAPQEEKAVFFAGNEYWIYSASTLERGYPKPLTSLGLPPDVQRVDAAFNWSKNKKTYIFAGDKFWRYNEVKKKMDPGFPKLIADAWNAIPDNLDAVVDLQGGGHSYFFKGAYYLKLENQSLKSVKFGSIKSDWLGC
Sequence of 26S proteasome non-ATPase regulatory subunit 14 (O00487 whole entry): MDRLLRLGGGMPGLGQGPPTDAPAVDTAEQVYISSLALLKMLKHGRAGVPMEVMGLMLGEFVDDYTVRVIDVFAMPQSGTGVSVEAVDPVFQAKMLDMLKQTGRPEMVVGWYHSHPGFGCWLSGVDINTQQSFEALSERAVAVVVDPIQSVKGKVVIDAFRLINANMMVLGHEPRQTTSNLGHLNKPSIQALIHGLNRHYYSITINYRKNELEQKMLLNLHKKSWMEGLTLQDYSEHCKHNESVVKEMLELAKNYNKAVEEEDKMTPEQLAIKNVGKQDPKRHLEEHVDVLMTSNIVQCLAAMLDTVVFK
Sequence of Luciferin 4-monooxygenase (P08659 whole entry): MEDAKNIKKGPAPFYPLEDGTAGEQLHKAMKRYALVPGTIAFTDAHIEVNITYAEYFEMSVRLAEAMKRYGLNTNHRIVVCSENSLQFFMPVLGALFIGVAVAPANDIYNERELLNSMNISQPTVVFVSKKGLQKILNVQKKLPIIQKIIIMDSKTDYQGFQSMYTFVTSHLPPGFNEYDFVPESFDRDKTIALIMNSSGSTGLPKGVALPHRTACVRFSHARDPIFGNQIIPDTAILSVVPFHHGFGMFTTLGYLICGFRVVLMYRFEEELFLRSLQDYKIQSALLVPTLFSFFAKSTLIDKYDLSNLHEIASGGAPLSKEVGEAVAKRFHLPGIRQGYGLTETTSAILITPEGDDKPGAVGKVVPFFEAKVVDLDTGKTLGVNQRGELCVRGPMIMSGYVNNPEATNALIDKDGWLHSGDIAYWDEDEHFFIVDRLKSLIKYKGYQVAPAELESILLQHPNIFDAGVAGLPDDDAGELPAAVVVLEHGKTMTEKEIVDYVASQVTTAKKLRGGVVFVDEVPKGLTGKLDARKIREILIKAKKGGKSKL
Sequence of Diphosphomevalonate decarboxylase (Q9FD53 whole entry): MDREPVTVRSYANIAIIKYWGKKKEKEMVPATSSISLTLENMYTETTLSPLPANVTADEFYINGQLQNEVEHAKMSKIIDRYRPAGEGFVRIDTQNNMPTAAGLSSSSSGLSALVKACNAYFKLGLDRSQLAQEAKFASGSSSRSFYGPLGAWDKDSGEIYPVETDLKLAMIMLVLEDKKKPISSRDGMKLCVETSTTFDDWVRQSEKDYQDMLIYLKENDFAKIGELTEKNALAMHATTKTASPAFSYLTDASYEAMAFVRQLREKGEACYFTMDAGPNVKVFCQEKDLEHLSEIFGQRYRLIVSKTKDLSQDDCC
Sequence of Sphingosine 1-phosphate receptor 2 (O95136 whole entry): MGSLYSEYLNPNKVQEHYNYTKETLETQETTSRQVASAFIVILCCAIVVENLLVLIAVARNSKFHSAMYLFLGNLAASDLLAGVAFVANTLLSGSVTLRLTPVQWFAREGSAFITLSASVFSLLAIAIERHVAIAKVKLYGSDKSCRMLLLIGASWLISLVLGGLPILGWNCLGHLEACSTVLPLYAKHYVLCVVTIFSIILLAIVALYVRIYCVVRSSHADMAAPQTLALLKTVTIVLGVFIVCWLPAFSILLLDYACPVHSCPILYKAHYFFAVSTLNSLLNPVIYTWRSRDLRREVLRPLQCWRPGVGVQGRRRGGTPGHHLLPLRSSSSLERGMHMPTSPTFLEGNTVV
Sequence of E3 ubiquitin-protein ligase Mdm2 (Q00987 whole entry): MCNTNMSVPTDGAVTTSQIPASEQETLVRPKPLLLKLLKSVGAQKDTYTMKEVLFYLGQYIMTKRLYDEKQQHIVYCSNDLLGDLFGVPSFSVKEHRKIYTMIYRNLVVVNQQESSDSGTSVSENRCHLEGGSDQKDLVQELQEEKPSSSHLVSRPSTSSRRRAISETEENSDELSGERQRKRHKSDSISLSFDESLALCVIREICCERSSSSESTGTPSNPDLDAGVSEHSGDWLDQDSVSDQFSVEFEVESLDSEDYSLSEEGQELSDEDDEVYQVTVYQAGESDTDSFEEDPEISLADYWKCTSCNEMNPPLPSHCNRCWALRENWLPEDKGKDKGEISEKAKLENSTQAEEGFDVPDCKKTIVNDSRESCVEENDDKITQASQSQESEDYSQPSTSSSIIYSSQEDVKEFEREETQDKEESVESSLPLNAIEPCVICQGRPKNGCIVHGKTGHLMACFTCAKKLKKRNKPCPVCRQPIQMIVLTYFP
Sequence of Induced myeloid leukemia cell differentiation protein Mcl-1 (Q07820 whole entry): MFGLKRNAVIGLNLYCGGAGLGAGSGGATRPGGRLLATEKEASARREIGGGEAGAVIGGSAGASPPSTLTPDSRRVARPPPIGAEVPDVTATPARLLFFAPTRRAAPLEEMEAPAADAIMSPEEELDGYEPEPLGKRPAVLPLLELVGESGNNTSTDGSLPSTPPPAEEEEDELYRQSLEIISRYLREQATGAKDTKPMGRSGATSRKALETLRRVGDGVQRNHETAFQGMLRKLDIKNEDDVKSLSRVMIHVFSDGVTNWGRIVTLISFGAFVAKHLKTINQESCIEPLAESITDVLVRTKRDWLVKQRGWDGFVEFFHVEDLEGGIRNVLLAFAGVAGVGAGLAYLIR
Sequence of Bifunctional protein GlmU (P9WMN3 whole entry): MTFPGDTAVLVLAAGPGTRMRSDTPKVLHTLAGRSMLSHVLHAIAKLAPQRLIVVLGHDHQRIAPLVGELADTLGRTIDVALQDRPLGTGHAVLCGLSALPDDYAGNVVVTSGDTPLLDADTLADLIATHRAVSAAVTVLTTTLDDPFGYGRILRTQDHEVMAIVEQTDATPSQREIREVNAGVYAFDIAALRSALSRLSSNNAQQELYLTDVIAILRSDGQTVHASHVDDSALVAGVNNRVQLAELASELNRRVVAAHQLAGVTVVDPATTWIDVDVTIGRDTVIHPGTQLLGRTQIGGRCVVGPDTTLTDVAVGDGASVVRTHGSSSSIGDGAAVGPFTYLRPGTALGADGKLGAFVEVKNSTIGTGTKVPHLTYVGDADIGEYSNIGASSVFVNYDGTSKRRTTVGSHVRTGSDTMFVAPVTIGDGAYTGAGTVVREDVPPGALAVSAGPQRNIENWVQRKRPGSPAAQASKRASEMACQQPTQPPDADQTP
Sequence of NADPH oxidase 1 (Q9Y5S8 whole entry): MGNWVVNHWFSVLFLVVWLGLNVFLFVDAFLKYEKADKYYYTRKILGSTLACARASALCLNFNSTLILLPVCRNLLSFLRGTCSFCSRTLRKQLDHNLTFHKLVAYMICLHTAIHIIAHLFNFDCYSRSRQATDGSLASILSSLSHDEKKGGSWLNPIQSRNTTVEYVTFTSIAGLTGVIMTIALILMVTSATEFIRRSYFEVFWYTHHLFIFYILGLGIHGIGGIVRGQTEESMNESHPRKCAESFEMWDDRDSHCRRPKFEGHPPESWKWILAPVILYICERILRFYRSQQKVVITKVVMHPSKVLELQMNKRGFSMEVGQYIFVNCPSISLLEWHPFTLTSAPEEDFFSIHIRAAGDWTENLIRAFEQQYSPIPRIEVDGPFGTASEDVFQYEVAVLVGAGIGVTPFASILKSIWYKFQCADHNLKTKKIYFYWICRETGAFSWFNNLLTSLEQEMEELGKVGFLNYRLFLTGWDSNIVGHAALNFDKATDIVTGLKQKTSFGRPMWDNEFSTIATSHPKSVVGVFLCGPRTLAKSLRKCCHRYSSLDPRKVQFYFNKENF

## Cc1ccc(N2C(=O)NC(=O)/C(=C/c3ccoc3)C2=O)cc1
[1]
  IC50: 66.5 µM (active)
[2]
  IC50: 4.84 µM (active)
[3]
  IC50: 4 µM (active)
[4]
  IC50: 6.76 µM (active)
[5]
  IC50: 3.45 µM (active)
Prothrombin
  IC50: 84.7 µM (active)
[6]
  IC50: 55.7 µM (active)
[7]
  AC50: 7.88 µM (active)

## O=C1SC(c2ccccc2)=N/C1=C/c1ccco1
[8]
  EC50: > 50 µM (not active)

## COc1cc2c(cc1OC)-c1cc(N3CCCc4ccccc43)nc(=O)n1CC2
[9]
  IC50: > 40 µM (not active)
[10]
  EC50: > 112 µM (not active)
[11]
  EC50: 3.35 µM (active)
[12]
  IC50: 13.2 µM (active)

## CCCN(CCC)C(=O)c1ccc(-n2sc3ccccc3c2=O)cc1
[13]
  IC50: 7.64 µM (active)

## CC(C(=O)N(C)C1CCS(=O)(=O)C1)N1C(=O)/C(=C/c2cccs2)SC1=S (stereo not given)
Vero
  CC50: 32.1 µM (active)

## Cc1cc2cc(C)c(SCC(=O)NCc3ccco3)nc2cc1C
[14]
  EC50: 489 µM (not active)

## Clc1ccc(-n2nnc(-c3cnc4ccccc4c3)n2)cc1Cl
Bcl-2-related protein A1 [15]
  IC50: > 100 µM (not active)
Bcl-2-related protein A1 [16]
  IC50: > 100 µM (not active)

## O=C1Nc2cc(F)ccc2/C1=N/Nc1c(F)c(F)nc(F)c1F
NADPH oxidase 1
  IC50: > 17 µM (not active)

## C/C(=C\C(=O)c1ccccc1)Nc1ccc(Cl)c(Br)c1
[17]
  IC50: > 100 µM (active)

## N=C1NC(=O)/C(=C/c2ccc(-c3ccc(S(N)(=O)=O)cc3)o2)S1
[18]
  EC50: 31.9 µM (active)
[19]
  EC50: 15 µM (active)
[20]
  IC50: > 39.8 µM (not active)
[21]
  IC50: 14.2 µM (not active)
[22]
  AC50: 1.97 µM (active)
